Laboratory results from ChEMBL document CHEMBL1201862, “PubChem BioAssay data set” (2004).
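Each compound was tested at five concentrations against cells in 96-well plates for 48 hours. GI50: concentration for 50% inhibition of growth.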 Calls of active or inactive are those of the source. Rule as the data show it: active = GI50 up to about 1.1 µM and inactive = higher.

Assays:
Test in all cases: NCI anticancer screen, dose series, 48 h
PC-3 = system: PC-3
MDA-N = system: MDA-N
RPMI-8226 = system: RPMI-8226
MCF7 = system: MCF7
TK-10 = system: TK-10
K562 = system: K562
SK-MEL-28 = system: SK-MEL-28
Hs-578T = system: Hs-578T
SK-OV-3 = system: SK-OV-3
NCI-H226 = system: NCI-H226
EKVX = system: EKVX
HL-60 = system: HL-60
M14 = system: M14
SNB-19 = system: SNB-19
HT-29 = system: HT-29
SF-539 = system: SF-539
CAKI-1 = system: CAKI-1
HCC 2998 = system: HCC 2998
MDA-MB-435 = system: MDA-MB-435
CCRF-CEM = system: CCRF-CEM

Measured: GI50

N/C(=N\c1ccc(Cl)cc1)NS(=O)(=O)c1c(C(F)(F)F)cccc1C(F)(F)F
inactive: PC-3 5.45 µM | MDA-N 22.2 µM | RPMI-8226 > 100 µM | MCF7 15.6 µM | TK-10 24 µM | K562 > 100 µM | SK-MEL-28 62.5 µM | Hs-578T 17.9 µM | SK-OV-3 35.2 µM | NCI-H226 27.6 µM | EKVX 5.93 µM | HL-60 20 µM | M14 26.3 µM | SNB-19 18.9 µM | HT-29 19.8 µM | SF-539 41.3 µM

CC(=O)/C(=C/n1c(=S)[nH]c2ccccc21)C(=O)Nc1ccccc1C
inactive: CAKI-1 > 100 µM | HCC 2998 > 100 µM | MDA-N > 100 µM | TK-10 > 100 µM | SK-MEL-28 > 100 µM | SK-OV-3 > 100 µM | NCI-H226 > 100 µM | EKVX > 100 µM | HL-60 > 100 µM | M14 > 100 µM | MDA-MB-435 > 100 µM | SNB-19 > 100 µM | HT-29 > 100 µM | SF-539 > 100 µM

C/C(=C\c1ccccc1)C(=O)NCc1ccc(C(=O)NCCc2ccccc2)cc1
inactive: CAKI-1 > 93.3 µM | HCC 2998 > 100 µM | PC-3 > 100 µM | MDA-N > 100 µM | RPMI-8226 > 100 µM | CCRF-CEM > 100 µM | MCF7 > 100 µM | TK-10 41.9 µM | K562 > 100 µM | SK-MEL-28 > 100 µM | Hs-578T 7.16 µM | SK-OV-3 12.2 µM | NCI-H226 17.9 µM | EKVX 22.5 µM | M14 > 100 µM | MDA-MB-435 > 100 µM | SNB-19 9.42 µM | HT-29 2.67 µM | SF-539 10.1 µM

OC1NC2Nc3ccccc3NC2NC1O (centres undefined)
inactive: CAKI-1 > 100 µM | HCC 2998 > 100 µM | PC-3 > 100 µM | CCRF-CEM > 100 µM | MCF7 > 100 µM | TK-10 > 100 µM | K562 > 100 µM | SK-MEL-28 > 100 µM | Hs-578T > 100 µM | SK-OV-3 > 100 µM | NCI-H226 > 100 µM | EKVX > 100 µM | HL-60 > 100 µM | M14 > 100 µM | MDA-MB-435 > 100 µM | SNB-19 > 100 µM | HT-29 > 100 µM | SF-539 > 100 µM

CCOP(=O)(OCC)[C@]12C[C@@H](C)C=C[C@H]1COC2=O
inactive: CAKI-1 > 100 µM | HCC 2998 > 100 µM | PC-3 > 100 µM | MDA-N > 100 µM | RPMI-8226 > 100 µM | CCRF-CEM > 100 µM | MCF7 > 100 µM | TK-10 > 100 µM | K562 > 100 µM | SK-MEL-28 > 100 µM | Hs-578T > 100 µM | SK-OV-3 > 100 µM | EKVX > 100 µM | M14 > 100 µM | MDA-MB-435 > 100 µM | SNB-19 > 100 µM | SF-539 > 100 µM

COc1ccc2c(c1)C/C(=C\c1cccc3ccccc13)C2=O
inactive: CAKI-1 > 100 µM | HCC 2998 5.04 µM | PC-3 16.2 µM | RPMI-8226 25.3 µM | CCRF-CEM 2.65 µM | MCF7 5.19 µM | TK-10 6.07 µM | K562 2.36 µM | SK-MEL-28 3.93 µM | Hs-578T 84.9 µM | SK-OV-3 16.8 µM | NCI-H226 10.5 µM | EKVX 18.5 µM | HL-60 4.95 µM | M14 5.97 µM | SNB-19 69.2 µM | HT-29 4.91 µM | SF-539 7.33 µM

CCOC(=O)C1=CN/C(=C(/C)C(=O)OC)SC1C(=O)OCC (centres undefined)
inactive: CAKI-1 > 100 µM | HCC 2998 > 100 µM | PC-3 69.7 µM | MDA-N > 100 µM | RPMI-8226 68.9 µM | CCRF-CEM > 61 µM | MCF7 > 93.5 µM | TK-10 > 92.9 µM | K562 17.5 µM | SK-MEL-28 > 100 µM | Hs-578T > 100 µM | SK-OV-3 > 100 µM | NCI-H226 > 100 µM | EKVX > 100 µM | M14 > 100 µM | MDA-MB-435 > 100 µM | SNB-19 98.2 µM | HT-29 > 100 µM | SF-539 > 100 µM

COCCCNc1c2ccccc2nc2ccccc12
inactive: CAKI-1 1.39 µM | HCC 2998 1.56 µM | PC-3 2.01 µM | MDA-N 3.09 µM | CCRF-CEM 5.26 µM | MCF7 2.34 µM | TK-10 5.62 µM | K562 3.23 µM | SK-MEL-28 2.44 µM | Hs-578T 2.78 µM | SK-OV-3 2.78 µM | EKVX 3.59 µM | HL-60 3.87 µM | M14 2.01 µM | MDA-MB-435 3.85 µM | SNB-19 3.09 µM | HT-29 2.82 µM | SF-539 2.26 µM
